In US9125913B2, “Bcl-2-selective apoptosis-inducing agents for the treatment of cancer and immune diseases” (AbbVie Inc., priority 2008, dated 2015):

Tests used:
[1] = system: GST-Bcl-2; experiment: TR-FRET binding assay, Bcl-2; details: TR-FRET Ki values
Procedure, shortened: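 Ki values come from Wang's competitive-binding equation applied to TR-FRET signal (excitation 340/35 nm; emission 520/525 nm F-Bak peptide, 495/510 nm Tb antibody). Protein, probe and antibody incubated with compound 3 h at room temperature; dilution series began at 50 μM as 2× stock in 10% DMSO.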

[2] = system: FL5.12/Bcl-2 cells; experiment: FL5.12/Bcl-2 cell viability assay; format: cell-based, murine; details: ratio of canine platelet EC50 to FL5.12/Bcl-2 EC50
Procedure, shortened: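 Viability measured with CellTiter-Glo after 24 h compound treatment at various concentrations, following 48 h IL-3 withdrawal (no WEHI-3B medium). Cells: prolymphocytic mouse FL5.12 line stably transfected to overexpress Bcl-2, cultured at 37 °C, 5% CO2.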

Row | SMILES | Binding selectivity ratio (Bcl-XL Ki/Bcl-2 Ki) [1] | Selectivity Ratio (Platelet EC50/FL5.12/Bcl-2 EC50) [2]
1 | CN1CCC(Nc2ccc(S(=O)(=O)NC(=O)c3ccc(N4CCN(CC5=C(c6ccc(Cl)cc6)CCCCC5)CC4)cc3Oc3cccc4[nH]ccc34)cc2[N+](=O)[O-])CC1 [Example 147, 4-(4-{[2-(4-chlorophenyl)cyclohept-1-en-1-yl]methyl}piperazin-1-yl)-2-(1H-indol-4-yloxy)-N-({4-[(1-methylpiperidin-4-yl)amino]-3-nitrophenyl}sulfonyl)benzamide] | >1284.0 | 1895
2 | CN1CCC(Nc2ccc(S(=O)(=O)NC(=O)c3ccc(N4CCN(CC5=C(c6ccc(Cl)cc6)CC(C)(C)CC5)CC4)cc3Oc3ccc4c(c3)CCCN4)cc2[N+](=O)[O-])CC1 [Example 23, 4-(4-{[2-(4-chlorophenyl)-4,4-dimethylcyclohex-1-en-1-yl]methyl}piperazin-1-yl)-N-({4-[(1-methylpiperidin-4-yl)amino]-3-nitrophenyl}sulfonyl)-2-(1,2,3,4-tetrahydroquinolin-6-yloxy)benzamide] | 25.3 | >35
3 | CC1(C)CCC(CN2CCN(c3ccc(C(=O)NS(=O)(=O)c4ccc(NCCCN5CCCC5)c([N+](=O)[O-])c4)c(Oc4cccc5[nH]ccc45)c3)CC2)=C(c2ccc(Cl)cc2)C1 [Example 102, 4-(4-{[2-(4-chlorophenyl)-4,4-dimethylcyclohex-1-en-1-yl]methyl}piperazin-1-yl)-2-(1H-indol-4-yloxy)-N-({3-nitro-4-[(3-pyrrolidin-1-ylpropyl)amino]phenyl}sulfonyl)benzamide] | 64.1 | 996
4 | CN1CCN(CCCNc2ccc(S(=O)(=O)NC(=O)c3ccc(N4CCN(Cc5ccccc5-c5ccc(Cl)cc5)CC4)cc3Oc3ccccc3)cc2[N+](=O)[O-])CC1 [Example 86, 4-{4-[(4′-chloro-1,1′-biphenyl-2-yl)methyl]piperazin-1-yl}-N-[(4-{[3-(4-methylpiperazin-1-yl)propyl]amino}-3-nitrophenyl)sulfonyl]-2-phenoxybenzamide] | 49.6 | 489
5 | O=C(NS(=O)(=O)c1ccc(NCC2CCOCC2)c([N+](=O)[O-])c1)c1ccc(N2CCN(Cc3cc(CCN4CCCC4)ccc3-c3ccc(Cl)cc3)CC2)cc1Oc1cccc2[nH]ccc12 [Example 25, 4-(4-{[4′-chloro-4-(2-pyrrolidin-1-ylethyl)-1,1′-biphenyl-2-yl]methyl}piperazin-1-yl)-2-(1H-indol-4-yloxy)-N-({3-nitro-4-[(tetrahydro-2H-pyran-4-ylmethyl)amino]phenyl}sulfonyl)benzamide] | 4103.8 | >1020
6 | CN1CCC(Nc2ccc(S(=O)(=O)NC(=O)c3ccc(N4CCN(CC5=C(c6ccc(Cl)cc6)CC(C)(C)CC5)CC4)cc3Oc3ccccc3)cc2[N+](=O)[O-])CC1 [Example 152, 4-(4-{[2-(4-chlorophenyl)-4,4-dimethylcyclohex-1-en-1-yl]methyl}piperazin-1-yl)-N-({4-[(1-methylpiperidin-4-yl)amino]-3-nitrophenyl}sulfonyl)-2-phenoxybenzamide] | 15.8 | 283
7 | CN(C)CCOc1ccc(-c2ccc(Cl)cc2)c(CN2CCN(c3ccc(C(=O)NS(=O)(=O)c4ccc(NCCCN5CCCC5)c([N+](=O)[O-])c4)c(Oc4ccc5[nH]ccc5c4)c3)CC2)c1 [Example 135, 4-[4-({4′-chloro-4-[2-(dimethylamino)ethoxy]-1,1′-biphenyl-2-yl}methyl)piperazin-1-yl]-2-(1H-indol-5-yloxy)-N-({3-nitro-4-[(3-pyrrolidin-1-ylpropyl)amino]phenyl}sulfonyl)benzamide] | 779.9 | 108
8 | CN1CCC(Nc2ccc(S(=O)(=O)NC(=O)c3ccc(N4CCN(CC5=C(c6ccc(Cl)cc6)CC(C)(C)CC5)CC4)cc3Oc3cccc4[nH]ccc34)cc2[N+](=O)[O-])CC1 [Example 103, 4-(4-{[2-(4-chlorophenyl)-4,4-dimethylcyclohex-1-en-1-yl]methyl}piperazin-1-yl)-2-(1H-indol-4-yloxy)-N-({4-[(1-methylpiperidin-4-yl)amino]-3-nitrophenyl}sulfonyl)benzamide] | 2096.1 | 2305
9 | CC1(C)CCC(CN2CCN(c3ccc(C(=O)NS(=O)(=O)c4ccc(NCCCN5CCOCC5)c([N+](=O)[O-])c4)c(Oc4ccccc4)c3)CC2)=C(c2ccc(Cl)cc2)C1 [Example 18, 4-(4-{[2-(4-chlorophenyl)-4,4-dimethylcyclohex-1-en-1-yl]methyl}piperazin-1-yl)-N-({4-[(3-morpholin-4-ylpropyl)amino]-3-nitrophenyl}sulfonyl)-2-phenoxybenzamide] | 34.2 | 241
10 | O=C(NS(=O)(=O)c1ccc(NCC2CCOCC2)c([N+](=O)[O-])c1)c1ccc(N2CCN(Cc3c(OCCN4CCOCC4)cccc3-c3ccc(Cl)cc3)CC2)cc1Oc1cccc2[nH]ccc12 [Example 131, 4-(4-{[4′-chloro-3-(2-morpholin-4-ylethoxy)-1,1′-biphenyl-2-yl]methyl}piperazin-1-yl)-2-(1H-indol-4-yloxy)-N-({3-nitro-4-[(tetrahydro-2H-pyran-4-ylmethyl)amino]phenyl}sulfonyl)benzamide] | 2292.2 | >1597
11 | CN1CCC(Nc2ccc(S(=O)(=O)NC(=O)c3ccc(N4CCN(CC5=C(c6ccc(Cl)cc6)CCCCC5)CC4)cc3Oc3ccc4[nH]ccc4c3)cc2[N+](=O)[O-])CC1 [Example 151, 4-(4-{[2-(4-chlorophenyl)cyclohept-1-en-1-yl]methyl}piperazin-1-yl)-2-(1H-indol-5-yloxy)-N-({4-[(1-methylpiperidin-4-yl)amino]-3-nitrophenyl}sulfonyl)benzamide] | >4074.1 | 642
12 | CN(C)CCOc1cccc(-c2ccc(Cl)cc2)c1CN1CCN(c2ccc(C(=O)NS(=O)(=O)c3ccc(NCCCN4CCCC4)c([N+](=O)[O-])c3)c(Oc3ccc4[nH]ccc4c3)c2)CC1 [Example 134, 4-[4-({4′-chloro-3-[2-(dimethylamino)ethoxy]-1,1′-biphenyl-2-yl}methyl)piperazin-1-yl]-2-(1H-indol-5-yloxy)-N-({3-nitro-4-[(3-pyrrolidin-1-ylpropyl)amino]phenyl}sulfonyl)benzamide] | 347.1 | 98
13 | CN1CCC(Nc2ccc(S(=O)(=O)NC(=O)c3ccc(N4CCN(CC5=C(c6ccc(Cl)cc6)CC(C)(C)C5)CC4)cc3Oc3cccc4[nH]ccc34)cc2[N+](=O)[O-])CC1 [Example 144, 4-(4-{[2-(4-chlorophenyl)-4,4-dimethylcyclopent-1-en-1-yl]methyl}piperazin-1-yl)-2-(1H-indol-4-yloxy)-N-({4-[(1-methylpiperidin-4-yl)amino]-3-nitrophenyl}sulfonyl)benzamide] | >12.2 | 864
14 | CN(C)CCOc1cccc(-c2ccc(Cl)cc2)c1CN1CCN(c2ccc(C(=O)NS(=O)(=O)c3ccc(NCCCN4CCCC4)c([N+](=O)[O-])c3)c(Oc3ccccc3)c2)CC1 [Example 123, 4-[4-({4′-chloro-3-[2-(dimethylamino)ethoxy]-1,1′-biphenyl-2-yl}methyl)piperazin-1-yl]-N-({3-nitro-4-[(3-pyrrolidin-1-ylpropyl)amino]phenyl}sulfonyl)-2-phenoxybenzamide] | 91.5 | 32
15 | CN1CCN(CCCNc2ccc(S(=O)(=O)NC(=O)c3ccc(N4CCN(CC5=C(c6ccc(Cl)cc6)CC(C)(C)CC5)CC4)cc3Oc3cccc4[nH]ccc34)cc2[N+](=O)[O-])CC1 [Example 99, 4-(4-{[2-(4-chlorophenyl)-4,4-dimethylcyclohex-1-en-1-yl]methyl}piperazin-1-yl)-2-(1H-indol-4-yloxy)-N-[(4-{[3-(4-methylpiperazin-1-yl)propyl]amino}-3-nitrophenyl)sulfonyl]benzamide] | 138.3 | 2440
16 | CN(C)CCOc1ccc(-c2ccc(Cl)cc2)c(CN2CCN(c3ccc(C(=O)NS(=O)(=O)c4ccc(NC5CCN(C)CC5)c([N+](=O)[O-])c4)c(Oc4ccccc4)c3)CC2)c1 [Example 133, 4-[4-({4′-chloro-4-[2-(dimethylamino)ethoxy]-1,1′-biphenyl-2-yl}methyl)piperazin-1-yl]-N-({4-[(1-methylpiperidin-4-yl)amino]-3-nitrophenyl}sulfonyl)-2-phenoxybenzamide] | 31.2 | 5
17 | CC1(C)CCC(CN2CCN(c3ccc(C(=O)NS(=O)(=O)c4ccc(NCCCN5CCCC5)c([N+](=O)[O-])c4)c(Oc4cccc5[nH]ccc45)c3)CC2)=C(c2ccc(C(F)(F)F)cc2)C1 [Example 69, 4-[4-({4,4-dimethyl-2-[4-(trifluoromethyl)phenyl]cyclohex-1-en-1-yl}methyl)piperazin-1-yl]-2-(1H-indol-4-yloxy)-N-({3-nitro-4-[(3-pyrrolidin-1-ylpropyl)amino]phenyl}sulfonyl)benzamide] | 74 | >666
